Assay results published in patent publication US11530197B2, “Analogs for the treatment of disease” (Insilico Medicine IP Limited, priority 2021, dated 2022).

Tests used:
MAP4K4 (h) = MAP4K4 (h) (Homo sapiens (Human), UniProt O95819); assay: MAP4K4 Human STE Kinase Enzymatic Radiometric Assay; type: biochemical; conditions: ATP 200 μM; 40 min at room temperature;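 also: kinase activity remaining relative to the DMSO control, IC50 derived from sigmoidal variable-slope curve fits, no preincubation of compound with enzyme before ATP start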
Protocol: (§1) The reaction is initiated by the addition of the Mg/ATP mix. After incubation for 40 minutes at room temperature, the reaction is stopped by the addition of phosphoric acid to a concentration of 0.5%.
INCUBATION: 40 min at Room temperature
COMPOUND DILUTION SCHEME: All compounds supplied were prepared to a working stock of 50× final assay concentration in 100% DMSO. Where appropriate, more concentrated stocks were diluted manually to 50× using 100% DMSO. Compounds supplied as powders were reconstituted to a 10 mM stock in 100% DMSO before further dilution to 50×.
ASSAY PROCEDURE: The required volume of the 50× stock of test compound was added to the assay before a reaction mix containing the enzyme and substrate was added. The reaction was initiated by the addition of ATP at the selected concentration. There was no pre-incubation of the compound with the enzyme/substrate mix prior to ATP addition.
Results are expressed as kinase activity remaining, as a percentage of the DMSO control. This is calculated using the following formula: Mean of Sample Counts−Mean of Blank Counts/Mean of Control Counts
(§2) For IC50 determinations, data are analyzed using XLFit version 5.3 (ID Business Solutions). Sigmoidal dose-response (variable slope) curves are fit based on the mean result for each test concentration using non-linear regression analysis. Where the top and/or bottom of the curve fall >10% out with 100 and 0, respectively, either or both of these limits may be constrained at 100 and 0, provided that the QC criterion on R2 is met.

[1] = test system: Collagen I (COL1A1) in LX-2 cells; assay: Collagen and Alpha-SMA in LX-2 (Western blot after TGF-β stimulation); type: cell-based; conditions: Homo sapiens, 4 ng/ml TGF-β for 48 hours, Collagen I normalized to GAPDH;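 also: cells serum-starved in 0.4% FBS before treatment, lysates analysed by Western blot, DMSO-only wells as blank and TGF-β alone as maximal induction control, three independent experiments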
Protocol: 3 ml of 0.25% Trypsin-EDTA solution was then added and cells were incubated at 37° C. for 5 min for each T150-flask. 7 ml of culture medium was added to stop trypsinization. The cells were centrifuged at 300×g for 5 min. Supernatant medium was discarded and cells were re-suspended with fresh culture medium. The cells were counted with Cell viability analyzer. 5.0E+05 cells/well were seeded into 6-well plate containing 2.0 mL of culture medium. The cells were cultured overnight at 37° C. The next day, the complete medium was replaced with medium with 0.4% FBS for starvation. […] In parallel, medium containing only DMSO and TGF-β was used as blank control and positive control, respectively. TGF-β induction was used as maximum induction positive control. The culture medium was discarded at the end of induction. Cells were washed once using ice-cold DPBS. RIPA buffer was added to lyse the cells for 20 min. The cells were then scraped off the culture plate, collected in a tube and centrifuged. The supernatant was stored at −80° C. The total amount of protein in the lysate was determined using BCA Protein Assay kit. The cell treatment of fibrosis assay was performed in three independent experiments for each compound.
All the lysate samples were adjusted to the same protein concentration with RIPA buffer after BCA assay. […] The denatured samples were used for electrophoresis. Western blot was performed according to the standard protocols. The same volume of protein was loaded onto 4-12% Bis-Tris gel. Duplicate lysates of samples were loaded onto two gels. The gels were run for 0.5 h at 80 V and 120 V for another 1 h. When the electrophoresis was completed, the gels containing target protein Collagen I (COL1A1) were transferred onto NC membrane using Trans-Blot Electrophoretic Transfer Cell for 90 min at 100 V. The iBlot™ 2 Gel Transfer Device was used to transfer α-SMA and GAPDH at 20 V for 7 min. All the membranes were blocked in TBST buffer with 5% nonfat dry milk in at RT for 1 h and then incubated with primary antibody anti-COL1A1 and anti-α-SMA in TBST buffer containing 5% BSA at 4° C. overnight. For GAPDH detection, the membrane with α-SMA immunoblots were stripped with Restore™ Western Blot Stripping Buffer after detection. And the membranes were re-blocked and then re-probed with primary antibody anti-GAPDH antibody at room temperature (RT) for 2 h. After incubation with primary antibodies, membranes were washed with TBST, then incubated with the secondary antibody at RT for 1 h. Blots were visualized using the instrument Image Quant LAS-4000. The chemiluminescent signals derived from ECL Western blotting reagents were captured. The bands integrated intensity from 16-bit blot images was used for quantitation with the software (1D component of ImageQuant TL). The quantification raw data of the two duplicated gels was obtained from ImageQuant TL. Collagen I and α-SMA proteins expression level was normalized to GAPDH for each gel. The average normalization data of the two duplicated gels was calculated and applied to calculate IC50 using an equation for a sigmoidal dose response (variable slope) of GraphPad™ Prism software. The equation is Y=Bottom+(Top-Bottom)/(1+10^((Log IC50−X)*Hillslope). Note: X is the logarithm of compound concentration, Y is the average normalization data

TNIK(h) = TNIK(h) (Homo sapiens (Human), UniProt Q9UKE5); assay: TNIK Human STE Kinase Enzymatic Radiometric Assay; type: biochemical; conditions: ATP 70 μM; 40 min at room temperature; read-out: TNIK (IC50);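 also: remaining kinase activity relative to DMSO control, compound added without preincubation, reaction started with ATP, IC50 from variable-slope sigmoidal dose-response fit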
Protocol: as §1
INCUBATION: 40 min at Room temperature
COMPOUND DILUTION SCHEME: All compounds supplied were prepared to a working stock of 50× final assay concentration in 100% DMSO. Where appropriate, more concentrated stocks were diluted manually to 50× using 100% DMSO. Compounds supplied as powders were reconstituted to a 10 mM stock in 100% DMSO before further dilution to 50×. ASSAY PROCEDURE: The required volume of the 50× stock of test compound was added to the assay before a reaction mix containing the enzyme and substrate was added. The reaction was initiated by the addition of ATP at the selected concentration. There was no pre-incubation of the compound with the enzyme/substrate mix prior to ATP addition. […] Results are expressed as kinase activity remaining, as a percentage of the DMSO control. This is calculated using the following formula:
as §2

[2] = Metabolic stability in human liver microsomes; type: in vitro ADME; conditions: LM Clint; 1 μM test compound, 0.5 mg protein/mL microsome, 37° C., up to 60 min;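 also: NADPH-supplemented human liver microsomes sampled at 0, 5, 10, 20, 30 and 60 min, parent compound quantified by LC-MS/MS, intrinsic clearance from first-order decay, no-cofactor incubation as control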
Protocol: Test Compound an Control Working Solution Preparation: Working solution: 5 μL of compound and control stock solution (10 mM in dimethyl sulfoxide (DMSO)) were diluted with 495 µL of acetonitrile (ACN) (intermediate solution concentration: 100 μM, 99% ACN).
Preparation Procedure: The appropriate amount of NADPH powder was weighed and diluted into a 10 mM MgCl2 solution (working solution concentration: 10 unit/mL; final concentration in reaction system: 1 unit/mL).
Preparation Procedure: The appropriate concentrations of microsome working solutions were prepared in 100 mM potassium phosphate buffer.
Stop Solution Preparation: Cold (4° C.) acetonitrile (ACN) containing 200 ng/mL tolbutamide and 200 ng/mL labetalol as internal standards (IS) was used as the stop solution.
Dilute liver microsomes to 0.56 mg/mL in 100 mM phosphate buffer.
Transfer 445 μL microsome working solutions (0.56 mg/mL) into pre-warmed ‘Incubation’ plates T60 and NCF60, Then pre-incubate ‘Incubation’ plates T60 and NCF60 for 10 min at 37° C. with constant shaking. Transfer 54 μL liver microsomes to blank plate, then add 6 μL NAPDH cofactor to blank plate, and then add 180 μL quenching solution to blank plate.
2.5.4 Add 5 μL compound working solution (100 μM) into ‘incubation’ plates (T60 and NCF60) containing microsomes and mix 3 times thoroughly.
For the NCF60 plate, add 50 μL of buffer and mix 3 times thoroughly. Start timing; plate will be incubated at 37° C. for 60 min while shaking.
For the T60 plate, mix 3 times thoroughly, and immediately remove 54 μL mixture for the 0-min time point to ‘Quenching’ plate. Then add 44 μL NAPDH cofactor to incubation plate (T60). Start timing; plate will be incubated at 37° C. for 60 min while shaking.
At 5, 10, 20, 30, and 60 min, add 180 μL quenching solution to ‘Quenching’ plates, mix once, and serially transfer 60 μL sample from T60 plate per time point to ‘Quenching’ plates.
For NCF60: mix once, and transfer 60 μL sample from the NCF60 incubation to ‘Quenching’ plate containing quenching solution at the 60-min time point.
All sampling plates are shaken for 10 min, then centrifuged at 4000 rpm for 20 minutes at 4° C.
Transfer 80 μL supernatant into 240 μL HPLC water, and mix by plate shaker for 10 min.
Each bioanalysis plate was sealed and shaken for 10 minutes prior to LC-MS/MS analysis.
The equation of first order kinetics was used to calculate T½ and Intrinsic clearance (CLint mic) in (L/min/mg).

Sequence of TNIK(h) (Q9UKE5 whole entry): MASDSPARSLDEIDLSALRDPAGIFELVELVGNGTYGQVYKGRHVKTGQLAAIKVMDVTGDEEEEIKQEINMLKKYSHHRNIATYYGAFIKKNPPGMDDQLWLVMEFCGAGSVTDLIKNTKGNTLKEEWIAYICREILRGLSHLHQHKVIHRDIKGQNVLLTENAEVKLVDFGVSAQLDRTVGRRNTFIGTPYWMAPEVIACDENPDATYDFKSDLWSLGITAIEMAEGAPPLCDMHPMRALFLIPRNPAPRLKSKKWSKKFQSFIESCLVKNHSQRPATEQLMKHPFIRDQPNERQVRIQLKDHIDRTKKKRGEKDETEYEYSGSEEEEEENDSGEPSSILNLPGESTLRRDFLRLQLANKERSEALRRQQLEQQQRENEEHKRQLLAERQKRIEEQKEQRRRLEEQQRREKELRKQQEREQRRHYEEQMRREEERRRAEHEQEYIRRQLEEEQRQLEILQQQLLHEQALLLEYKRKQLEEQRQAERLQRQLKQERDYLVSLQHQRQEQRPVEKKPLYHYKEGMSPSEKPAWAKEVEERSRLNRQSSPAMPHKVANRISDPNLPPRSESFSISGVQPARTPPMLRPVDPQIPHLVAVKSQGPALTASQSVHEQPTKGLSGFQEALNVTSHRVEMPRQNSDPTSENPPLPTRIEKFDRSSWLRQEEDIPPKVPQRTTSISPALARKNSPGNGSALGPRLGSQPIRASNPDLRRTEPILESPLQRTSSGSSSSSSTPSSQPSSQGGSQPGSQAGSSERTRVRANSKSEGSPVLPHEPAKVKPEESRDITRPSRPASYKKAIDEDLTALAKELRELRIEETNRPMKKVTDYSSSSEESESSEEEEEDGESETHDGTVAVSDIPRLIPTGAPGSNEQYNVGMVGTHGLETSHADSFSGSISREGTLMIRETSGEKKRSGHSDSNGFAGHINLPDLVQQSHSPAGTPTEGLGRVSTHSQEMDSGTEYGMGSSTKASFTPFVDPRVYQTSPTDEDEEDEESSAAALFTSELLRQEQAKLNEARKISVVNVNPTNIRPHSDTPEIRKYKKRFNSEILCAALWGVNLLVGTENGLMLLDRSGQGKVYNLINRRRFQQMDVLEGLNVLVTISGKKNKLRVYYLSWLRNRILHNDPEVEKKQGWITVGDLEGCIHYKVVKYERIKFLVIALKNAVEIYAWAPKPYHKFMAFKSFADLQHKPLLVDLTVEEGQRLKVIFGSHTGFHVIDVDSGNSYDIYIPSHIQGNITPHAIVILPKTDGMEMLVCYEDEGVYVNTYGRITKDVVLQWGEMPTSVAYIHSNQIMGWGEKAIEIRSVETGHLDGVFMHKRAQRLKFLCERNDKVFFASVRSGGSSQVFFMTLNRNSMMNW
Sequence of MAP4K4 (h) (O95819 whole entry): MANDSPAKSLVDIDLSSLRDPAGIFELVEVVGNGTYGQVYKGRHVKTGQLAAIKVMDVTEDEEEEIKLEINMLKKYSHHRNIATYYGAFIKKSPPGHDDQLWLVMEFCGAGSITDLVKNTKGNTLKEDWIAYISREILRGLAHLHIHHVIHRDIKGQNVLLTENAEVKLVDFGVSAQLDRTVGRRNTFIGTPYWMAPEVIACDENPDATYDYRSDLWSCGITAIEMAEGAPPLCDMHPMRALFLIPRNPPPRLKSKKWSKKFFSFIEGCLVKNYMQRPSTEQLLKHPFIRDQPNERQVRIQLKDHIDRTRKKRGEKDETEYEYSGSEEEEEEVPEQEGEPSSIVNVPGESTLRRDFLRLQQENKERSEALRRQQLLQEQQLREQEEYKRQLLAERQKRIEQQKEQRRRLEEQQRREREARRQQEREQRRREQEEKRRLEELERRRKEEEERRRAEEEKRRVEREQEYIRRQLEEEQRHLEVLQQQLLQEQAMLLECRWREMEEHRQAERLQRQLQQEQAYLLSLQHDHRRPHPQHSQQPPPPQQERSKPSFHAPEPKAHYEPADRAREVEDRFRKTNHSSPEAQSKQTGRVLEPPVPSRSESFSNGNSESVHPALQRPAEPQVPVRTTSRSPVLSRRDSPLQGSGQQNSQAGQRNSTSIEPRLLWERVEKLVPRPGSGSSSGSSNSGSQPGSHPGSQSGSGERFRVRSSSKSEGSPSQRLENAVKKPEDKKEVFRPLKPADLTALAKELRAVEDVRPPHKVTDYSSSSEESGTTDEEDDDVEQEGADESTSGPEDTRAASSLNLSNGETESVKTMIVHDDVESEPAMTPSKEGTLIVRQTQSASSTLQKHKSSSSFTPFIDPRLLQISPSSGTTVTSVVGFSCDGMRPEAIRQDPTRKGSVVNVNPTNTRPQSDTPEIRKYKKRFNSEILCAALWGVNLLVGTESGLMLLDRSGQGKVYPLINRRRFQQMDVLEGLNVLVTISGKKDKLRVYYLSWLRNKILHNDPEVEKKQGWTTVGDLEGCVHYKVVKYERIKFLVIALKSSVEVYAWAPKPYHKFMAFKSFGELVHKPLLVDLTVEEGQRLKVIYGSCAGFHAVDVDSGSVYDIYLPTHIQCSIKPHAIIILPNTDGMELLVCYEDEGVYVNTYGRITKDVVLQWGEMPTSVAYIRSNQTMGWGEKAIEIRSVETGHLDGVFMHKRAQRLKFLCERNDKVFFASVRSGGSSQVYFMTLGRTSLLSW

SMILES	IC50 (MAP4K4 (h))	IC50 [1]	IC50 (TNIK(h))	Human Liver Microsome (μM/min/mg) [2]
CC(C)n1cnc(-c2ccc(F)cc2)c1-c1nc(C(=O)Nc2ccc(N3CCN(C)C(=O)C3)cc2)c[nH]1 [Compound 185, 5′-(4-fluorophenyl)-3′-isopropyl-N-(4-(4-methyl-3-oxopiperazin-1-yl)phenyl)-1H,3′H-[2,4′-biimidazole]-4-carboxamide]	12 to 120 nM	0.1 to 1 nM	12 to 120 nM	
CC(C)n1cnc(-c2ccc(C(F)(F)F)cc2)c1-c1nc(C(=O)Nc2ccc(CCC(=O)O)cc2)c[nH]1 [Compound 133, 3-(4-(3′-isopropyl-5′-(4-(trifluoromethyl)phenyl)-1H,3′H-[2,4′-biimidazole]-4-carboxamido)phenyl)propanoic acid]	> 120 nM		> 120 nM	+++ (1-10 μM/min/mg as +++)
CC1CN(c2ccc(NC(=O)c3c[nH]c(-c4c(-c5ccc(F)cc5)ncn4CC(F)(F)F)n3)cc2)CC(C)N1C (stereo not shown) [Compound 190, 5′-(4-fluorophenyl)-3′-(2,2,2-trifluoroethyl)-N-(4-(3,4,5-trimethylpiperazin-1-yl)phenyl)-1H,3′H-[2,4′-biimidazole]-4-carboxamide]	12 to 120 nM	< 0.1 nM	1 to 12 nM	
CC(=O)N1CCN(c2ccc(NC(=O)c3c[nH]c(-c4c(-c5ccc(F)cc5)ncn4C(C)C)n3)cc2)CC1 [Compound 188, N-(4-(4-acetylpiperazin-1-yl)phenyl)-5′-(4-fluorophenyl)-3′-isopropyl-1H,3′H-[2,4′-biimidazole]-4-carboxamide]	12 to 120 nM	0.1 to 1 nM	1 to 12 nM	
O=C(Nc1ccccc1F)c1occc1-c1c(-c2cccnc2)ncn1C1CCCC1 [Compound 1]		> 1 nM		
O=C(NC1CCOCC1)c1ccc(-c2c(-c3ccc(F)cc3)ncn2C2CCCC2)o1 [Compound 39]		> 1 nM		
CC(C)n1cnc(-c2ccc(F)cc2)c1-c1nc(C(=O)Nc2ccc(N3C[C@H]4CC[C@@H](C3)N4C)cc2)c[nH]1 [Compound 186, 5′-(4-fluorophenyl)-3′-isopropyl-N-(4-((1R,5S)-8-methyl-3,8-diazabicyclo[3.2.1]octan-3-yl)phenyl)-1H,3′H-[2,4′-biimidazole]-4-carboxamide]	1 to 12 nM		1 to 12 nM	
C[N+]1([O-])CCN(c2ccc(NC(=O)c3c[nH]c(-c4c(-c5ccc(F)cc5)ncn4CC(F)(F)F)n3)cc2)CC1 [Compound 166, 4-(4-(5′-(4-fluorophenyl)-3′-(2,2,2-trifluoroethyl)-1H,3′H-[2,4′-biimidazole]-4-carboxamido)phenyl)-1-methylpiperazine 1-oxide]	> 120 nM		> 120 nM	+++ (1-10 μM/min/mg as +++)
CC(C)n1cnc(-c2ccc(F)cc2)c1-c1nc(C(=O)Nc2ccc(C(=O)O)cc2)c[nH]1 [Compound 113, 4-(5′-(4-fluorophenyl)-3′-isopropyl-1H,3′H-[2,4′-biimidazole]-4-carboxamido)benzoic acid]	> 120 nM		1 to 12 nM	+++ (1-10 μM/min/mg as +++)
CC(C)n1cnc(-c2ccc(Cl)cc2)c1-c1nc(C(=O)Nc2ccc(CCC(=O)O)cc2)c[nH]1 [Compound 137, 3-(4-(5′-(4-chlorophenyl)-3′-isopropyl-1H,3′H-[2,4′-biimidazole]-4-carboxamido)phenyl)propanoic acid]	> 120 nM		1 to 12 nM	+++ (1-10 μM/min/mg as +++)
CN1[C@@H]2CC[C@H]1CN(c1ccc(NC(=O)c3c[nH]c(-c4c(-c5ccc(F)cc5)ncn4CC(F)(F)F)n3)cc1)C2 [Compound 193, 5′-(4-fluorophenyl)-N-(4-((1R,5S)-8-methyl-3,8-diazabicyclo[3.2.1]octan-3-yl)phenyl)-3′-(2,2,2-trifluoroethyl)-1H,3′H-[2,4′-biimidazole]-4-carboxamide]	12 to 120 nM	< 0.1 nM	12 to 120 nM	
O=C(Nc1ccc(N2CCN(CC(F)(F)F)CC2)cc1)c1c[nH]c(-c2c(-c3ccc(F)cc3)ncn2CC(F)(F)F)n1 [Compound 192, 5′-(4-fluorophenyl)-3′-(2,2,2-trifluoroethyl)-N-(4-(4-(2,2,2-trifluoroethyl)piperazin-1-yl)phenyl)-1H,3′H-[2,4′-biimidazole]-4-carboxamide]	> 120 nM	< 0.1 nM	12 to 120 nM	
CC(C)n1cnc(-c2ccc(F)cc2)c1-c1nc(C(=O)Nc2ccc(N3CCNCC3)cc2)c[nH]1 [Compound 181, 5′-(4-fluorophenyl)-3′-isopropyl-N-(4-(piperazin-1-yl)phenyl)-1H,3′H-[2,4′-biimidazole]-4-carboxamide]	12 to 120 nM		12 to 120 nM	++ (10-100 μM/min/mg as ++)
CC(C)n1cnc(-c2ccc(F)cc2)c1-c1nc(C(=O)Nc2ccc(N3CCN(S(N)(=O)=O)CC3)cc2)c[nH]1 [Compound 97, 5′-(4-fluorophenyl)-3′-isopropyl-N-(4-(4-sulfamoylpiperazin-1-yl)phenyl)-1H,3′H-[2,4′-biimidazole]-4-carboxamide]	12 to 120 nM		12 to 120 nM	+ (>100 μM/min/mg as +)
CN1CCN(c2ccc(NC(=O)c3c[nH]c(-c4c(-c5ccc(F)cc5)ncn4CC(F)(F)F)n3)cc2)CC1=O [Compound 194, 5′-(4-fluorophenyl)-N-(4-(4-methyl-3-oxopiperazin-1-yl)phenyl)-3′-(2,2,2-trifluoroethyl)-1H,3′H-[2,4′-biimidazole]-4-carboxamide]	> 120 nM	0.1 to 1 nM	12 to 120 nM	
CC(C)n1cnc(-c2ccc(F)cc2)c1-c1nc(C(=O)Nc2ccc(CCCCC(=O)O)cc2)c[nH]1 [Compound 132, 5-(4-(5′-(4-fluorophenyl)-3′-isopropyl-1H,3′H-[2,4′-biimidazole]-4-carboxamido)phenyl)pentanoic acid]	12 to 120 nM		12 to 120 nM	+++ (1-10 μM/min/mg as +++)
CN1CCN(c2ccc(NC(=O)c3c[nH]c(-c4c(-c5ccc(F)cc5)ncn4[C@H]4CC[C@@H](O)CC4)n3)cc2)CC1 [Compound 172]			12 to 120 nM	
CC(C)n1cnc(-c2ccc(C(F)(F)F)cc2)c1-c1nc(C(=O)Nc2ccc(N3CCN(CCO)CC3)cc2)c[nH]1 [Compound 134]	> 120 nM		> 120 nM	++ (10-100 μM/min/mg as ++)
CC1CN(c2ccc(NC(=O)c3c[nH]c(-c4c(-c5ccc(F)cc5)ncn4C(C)C)n3)cc2)CC(C)N1C (stereo not shown) [Compound 196, 5′-(4-fluorophenyl)-3′-isopropyl-N-(4-(3,4,5-trimethylpiperazin-1-yl)phenyl)-1H,3′H-[2,4′-biimidazole]-4-carboxamide]	12 to 120 nM	< 0.1 nM	12 to 120 nM	
CC(C)n1cnc(-c2ccc(F)cc2)c1-c1nc(C(=O)Nc2ccc(CCC(=O)O)cc2)c[nH]1 [Compound 102, 3-(4-(5′-(4-fluorophenyl)-3′-isopropyl-1H,3′H-[2,4′-biimidazole]-4-carboxamido)phenyl)propanoic acid]	> 120 nM		12 to 120 nM	+++ (1-10 μM/min/mg as +++)
CC(=O)N1CCN(c2ccc(NC(=O)c3c[nH]c(-c4c(-c5ccc(F)cc5)ncn4CC(F)(F)F)n3)cc2)CC1 [Compound 191, N-(4-(4-acetylpiperazin-1-yl)phenyl)-5′-(4-fluorophenyl)-3′-(2,2,2-trifluoroethyl)-1H,3′H-[2,4′-biimidazole]-4-carboxamide]	12 to 120 nM	0.1 to 1 nM	12 to 120 nM	
CC(C)n1cnc(-c2ccc(F)cc2)c1-c1nc(C(=O)Nc2ccc(N3CCN(C(N)=O)CC3)cc2)c[nH]1 [Compound 99, N-(4-(4-carbamoylpiperazin-1-yl)phenyl)-5′-(4-fluorophenyl)-3′-isopropyl-1H,3′H-[2,4′-biimidazole]-4-carboxamide]	> 120 nM		> 120 nM	++ (10-100 μM/min/mg as ++)
O=C(Nc1ccccc1F)c1occc1-c1c(-c2ccc(F)cc2)ncn1CC1CCOC1 (stereo not shown) [Compound 4]		> 1 nM		
O=C(Nc1ccc(N2CCN(CCO)CC2)cc1)c1c[nH]c(-c2c(-c3ccc(F)cc3)ncn2[C@H]2CC[C@H](O)CC2)n1 [Compound 158, 5′-(4-fluorophenyl)-3′-((1r,4r)-4-hydroxycyclohexyl)-N-(4-(4-(2-hydroxyethyl)piperazin-1-yl)phenyl)-1H,3′H-[2,4′-biimidazole]-4-carboxamide]	12 to 120 nM		1 to 12 nM	+++ (1-10 μM/min/mg as +++)
CN1CCN(c2ccc(NC(=O)c3c[nH]c(-c4c(-c5ccc(F)cc5)ncn4C)n3)cc2)CC1 [Compound 119, 5′-(4-fluorophenyl)-3′-methyl-N-(4-(4-methylpiperazin-1-yl)phenyl)-1H,3′H-[2,4′-biimidazole]-4-carboxamide]	> 120 nM		> 120 nM	++ (10-100 μM/min/mg as ++)
CN1CCN(c2ccc(NC(=O)c3c[nH]c(-c4ncn(C(F)F)c4-c4ccc(F)cc4)n3)cc2)CC1 [Compound 175]			1 to 12 nM	
CC(C)n1cnc(-c2ccc(C(F)(F)F)cc2)c1-c1nc(C(=O)Nc2ccc(N3CCN(C)CC3)cc2)c[nH]1 [Compound 142, 3′-isopropyl-N-(4-(4-methylpiperazin-1-yl)phenyl)-5′-(4-(trifluoromethyl)phenyl)-1H,3′H-[2,4′-biimidazole]-4-carboxamide]	> 120 nM		> 120 nM	+ (>100 μM/min/mg as +)
CN1CCN(c2ccc(NC(=O)c3c[nH]c(-c4c(-c5ccc(F)cc5)ncn4CC(C)(C)C)n3)cc2)CC1 [Compound 135, 5′-(4-fluorophenyl)-N-(4-(4-methylpiperazin-1-yl)phenyl)-3′-neopentyl-1H,3′H-[2,4′-biimidazole]-4-carboxamide]	> 120 nM		12 to 120 nM	+ (>100 μM/min/mg as +)
